ChEMBL document CHEMBL3822355, “Synthesis and evaluation of substituted 4-(N-benzylamino)cinnamate esters as potential anti-cancer agents and HIV-1 integrase inhibitors” (Bioorg Med Chem Lett, 2016)
pIC50: −log10 of the molar value.

Tests used:
[1] = Cytotoxicity against HEK293 cells assessed as cell viability at 100 uM after 48 hrs by resazurin assay; type: cell-based; conditions: human, read-out: Activity
[2] = test system: MDA-MB-231; experiment: Anti-cancer activity against human MDA-MB-231 cells assessed as reduction in cell viability after 72 hrs by WST-1 assay; type: functional, cell-based; conditions: MDA-MB-231, 72 h
[3] = test system: HeLa; experiment: Anti-cancer activity against human HeLa cells assessed as reduction in cell viability after 72 hrs by WST-1 assay; type: functional, cell-based

SMILES | pIC50 [2] | pIC50 [3] | viability at 48 h, 100 µM [1] [%]
COC(=O)/C=C/c1ccc(NCc2cc([N+](=O)[O-])ccc2O)cc1 | 4.76 | 4.80 | 108
COC(=O)/C=C/c1ccc(NCc2cc(Br)cc(Br)c2O)cc1 | 4.94 | 4.45 | 114
COC(=O)/C=C/c1ccc(NCc2cc(Br)ccc2O)cc1 | 3.96 | 5.11 | 98.1
COC(=O)/C=C/c1ccc(NCc2cc(Cl)cc(Cl)c2O)cc1 | 5.02 | 4.59 | 107
COC(=O)/C=C/c1ccc(NCc2cc(Cl)ccc2O)cc1 | 4.06 | 5.07 | 92.4
COC(=O)/C=C/c1ccc(NCc2ccc(O)c(O)c2)cc1 | 4.44 | 4.11 | 114
COC(=O)/C=C/c1ccc(NCc2cccc(O)c2O)cc1 | 4.49 | 4.17 | 82.3

Stronger by pIC50 [3], values ahead:

pIC50 [2] | pIC50 [3] | SMILES | viability at 48 h, 100 µM [1] [%]
4.50 | 5.14 | COC(=O)/C=C/c1ccc(NCc2ccccc2O)cc1 | 94.4
4.13 | 5.52 | COC(=O)/C=C/c1ccc(NCc2cccc(OC)c2O)cc1 | 114
– | 7.70 | CC(=O)O[C@H]1C(=O)[C@@]2(C)[C@H]([C@H](OC(=O)c3ccccc3)[C@]3(O)C[C@H](OC(=O)[C@H](O)[C@@H](NC(=O)c4ccccc4)c4ccccc4)C(C)=C1C3(C)C)[C@]1(OC(C)=O)CO[C@@H]1C[C@@H]2O [PACLITAXEL] | –
